Publication PMC9223267, “Serine hydroxymethyltransferase as a potential target of antibacterial agents acting synergistically with one-carbon metabolism-related inhibitors” (Communications Biology, 2022)
Read-outs that look alike come from different tables or passages of the source.

Tests used:
[1] = test system: E. faecium; experiment: Bacterial viability assay (Microbial Viability Assay Kit-WST, OD450); format: cell-based, Enterococcus faecium; settings: for EC50: Enterococcus faecium
Procedure: Living E. faecium were determined using the Microbial Viability Assay Kit-WST (DOJINDO, Tokyo, Japan). […] Positive control wells included bacteria seeded into MH broth without compounds, and the negative control wells contained MH broth only. […] Five microlitres of the colouring reagent were added to each well of the 96-well plate every 2 h after starting incubation with each compound.

[2] = test system: E. faecium; experiment: Antibacterial activity evaluation (turbidity, OD600); format: cell-based, Enterococcus faecium (JCM5804); settings: for 50% effective concentration (EC50): growth of E. faecium
Procedure: (§1) E. faecium and E. faecalis were diluted to turbidity equivalents that matched 1.0 McFarland (McF) standard in distilled water (S. aureus and E. coli were also diluted to 0.5 McF), and additionally diluted 1:200 in Mueller–Hinton (MH) broth. The designated concentrations of the tested compounds were prepared by ten-fold serial dilutions directly in 96-well microtiter plates (IWAKI, Shizuoka, Japan), as previously described. […] The other compounds were serially diluted from 20 μM downwards (final concentration, 10 μM). […] Positive control wells included bacteria without any compound, and the negative control wells only contained MH broth. […] The optical density at 600 nm (OD600) was measured using a GloMax microtiter plate reader (Promega, WI, USA), and the EC50 values of each test compound and standard error were calculated by Microsoft Excel function, AVERAGE and STDEV/SQRT.

[3] = test system: E. faecium; experiment: Antibacterial assay with an excess concentration of biomolecules (Ser, Gly, inosine, dT, FA); format: cell-based, Enterococcus faecium (JCM5804)
Procedure: as §1
The ratio of the control EC50 (no competitors added) to the experimental EC50 (competitors added) was calculated for each test substance.

[4] = target: efmSHMT (Enterococcus faecium, UniProt I3U4H4, M1V); experiment: biochemical; format: binding
efmSHMT (Enterococcus faecium, UniProt I3U4H4, M1V), sequence (I3U4H4 whole entry M1V): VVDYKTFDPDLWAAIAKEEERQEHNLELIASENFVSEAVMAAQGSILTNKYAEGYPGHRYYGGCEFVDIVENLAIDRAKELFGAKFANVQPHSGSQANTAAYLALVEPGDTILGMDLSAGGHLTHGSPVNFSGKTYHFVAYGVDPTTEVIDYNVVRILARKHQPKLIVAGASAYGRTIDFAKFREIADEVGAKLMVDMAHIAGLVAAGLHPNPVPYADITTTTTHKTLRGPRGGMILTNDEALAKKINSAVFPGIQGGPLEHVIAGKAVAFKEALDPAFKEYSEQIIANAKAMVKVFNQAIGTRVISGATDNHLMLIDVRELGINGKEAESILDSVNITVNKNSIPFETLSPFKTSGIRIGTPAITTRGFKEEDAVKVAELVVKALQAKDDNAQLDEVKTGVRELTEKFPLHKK
Procedure: After adding Me-THF, the efmSHMT solution was incubated for 30 min at room temperature. The optical density at 500 and 600 nm (OD500 and OD600) were then measured using a nanodrop spectrophotometer[24],[25]. OD600 was used as the background. After detection, each concentration of inhibitor was added to the efmSHMT solution and incubated for 30 min at room temperature. OD500 and OD600 were measured. The relative OD500 intensity was calculated as relative OD500 = (OD500 – OD600)/(MAXOD500 – OD600), where MAXOD500 is the average OD500 value in the presence of 1000, 2000 and 4000 μM Me-THF without inhibitors. […] Here, IC50 is the concentration of inhibitor added to the efmSHMT solution and [Me-THF] is the EC50 in the presence of the inhibitor concentration. [EC50 without inhibitor] is the EC50 of Me-THF in the absence of the inhibitor.

[5] = test system: E. faecalis; experiment: Antibacterial activity evaluation (turbidity, OD600); format: cell-based, Enterococcus faecalis (JCM7783); settings: E. faecalis JCM7783
Procedure: as §1

[6] = test system: E. coli; experiment: as above; format: cell-based, Escherichia coli (ATCC25922); settings: E. coli ATCC25922
Procedure: as §1

[7] = test system: S. aureus; experiment: as above; format: cell-based, Staphylococcus aureus (ATCC29213); settings: S. aureus ATCC29213
Procedure: as §1

[8] = target: T1, ecSHMT (Escherichia coli, UniProt P0A825); experiment: Thermal stability analysis using differential scanning fluorimetry (DSF); format: binding, E. coli; settings: final drug concentration 50 μM
T1 construct: His tag (followed by PreScission protease cleavage site) (N, cleaved yes); made in house; host or cells: E. coli BL21(DE3)
T1 sequence (P0A825 whole entry): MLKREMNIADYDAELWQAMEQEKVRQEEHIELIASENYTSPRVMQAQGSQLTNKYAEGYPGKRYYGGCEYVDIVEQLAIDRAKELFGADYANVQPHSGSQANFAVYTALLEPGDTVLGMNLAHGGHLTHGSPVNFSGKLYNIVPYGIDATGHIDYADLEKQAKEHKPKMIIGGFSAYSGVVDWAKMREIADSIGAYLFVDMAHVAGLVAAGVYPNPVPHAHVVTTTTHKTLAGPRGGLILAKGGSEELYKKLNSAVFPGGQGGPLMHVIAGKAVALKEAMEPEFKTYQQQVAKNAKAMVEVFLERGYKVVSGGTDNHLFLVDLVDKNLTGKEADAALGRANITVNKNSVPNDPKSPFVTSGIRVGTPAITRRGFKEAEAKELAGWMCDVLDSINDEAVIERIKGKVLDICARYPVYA
Procedure: Protein samples were prepared as 20 μL aliquots containing 0.1 mg/mL protein (efmSHMT/ecSHMT), 1 μL of the ligand in DMSO (final drug concentration, 50 μM) and 2% or 4% SYPRO Orange (Invitrogen, MA, USA). Measurements were taken using StepOnePlus real-time PCR (Thermo Fisher Scientific) (temperature increment, 1.8%; range, 20–95 °C). Melting points were evaluated as the half-point of the maximum intensity of each curve.

[9] = test system: efmSHMT; format: binding, Enterococcus faecium; settings: DSF; final drug concentration 50 μM
Procedure: Protein samples were prepared as 20 μL aliquots containing 0.1 mg/mL protein (efmSHMT/ecSHMT), 1 μL of the ligand in DMSO (final drug concentration, 50 μM) and 2% or 4% SYPRO Orange (Invitrogen, MA, USA). […] Melting points were evaluated as the half-point of the maximum intensity of each curve.

[10] = cited from earlier work
[11] = target: the molecule itself; experiment: dynamic light scattering; 25 °C, Zetasizer NanoS, efmSHMT at 0.5 mg/mL, in triplicate; hydrodynamic radius 4.209 nm

Cc1n[nH]c2c1[C@](c1cc(CO)cc(-c3ccccc3)c1)(C(C)C)C(C#N)=C(N)O2 [(+)-SHIN-1]
mode of antibacterial action (time-dependent bacterial viability) [1]: bacteriostatically | EC50 ([1]; relative bacterial viability after 14 h incubation): 0.23 nM | EC50 ([1]; value of the response letter (earlier manuscript version)): 0.21 ± 0.13 nM | EC50 ([2]; Enterococcus faecium, read-out: 50% effective concentration (EC50), growth of E. faecium, order of magnitude given): 0.01 nM | EC50 ([2]; Enterococcus faecium, E. faecium JCM5804, read-out: EC50): 0.031 nM | EC50 ([2]; Enterococcus faecium, E. faecium JCM5804, read-out: pEC50 ± S.E. (converted)): 0.0316 nM | EC50 ([2]; Enterococcus faecium, E. faecium, value of the response letter (earlier manuscript version), read-out: EC50 (turbidity)): 0.044 ± 0.028 nM | 50% effective concentration (EC50) ([2]; order of magnitude given): 10^–10 to 10^–11 M | EC50 ([3]; Enterococcus faecium, JCM5804, E. faecium JCM5804, 1 mM Inosine, read-out: EC50): 0.36 nM | EC50 ([3]; Enterococcus faecium, JCM5804, E. faecium JCM5804, 1 mM Inosine, read-out: pEC50 ± S.E. (converted)): 0.398 nM | EC50 ([3]; Enterococcus faecium, JCM5804, E. faecium JCM5804, 1 mM deoxythymidine, read-out: EC50): > 2000 nM | EC50 ([3]; Enterococcus faecium, JCM5804, E. faecium JCM5804, 1 mM deoxythymidine, read-out: pEC50 ± S.E. (converted)): > 2000 nM | EC50 ([3]; Enterococcus faecium, JCM5804, E. faecium JCM5804, 10 mM Glycine, read-out: EC50): 0.12 nM | EC50 ([3]; Enterococcus faecium, JCM5804, E. faecium JCM5804, 10 mM Glycine, read-out: pEC50 ± S.E. (converted)): 0.126 nM | EC50 ([3]; Enterococcus faecium, JCM5804, E. faecium JCM5804, 100 mM Serine, read-out: EC50): 0.43 nM | EC50 ([3]; Enterococcus faecium, JCM5804, E. faecium JCM5804, 100 mM Serine, read-out: pEC50 ± S.E. (converted)): 0.398 nM | EC50 ([3]; Enterococcus faecium, JCM5804, E. faecium JCM5804, 0.1 M folate, read-out: EC50): > 2000 nM | EC50 ([3]; Enterococcus faecium, JCM5804, E. faecium JCM5804, 0.1 M folate, read-out: pEC50 ± S.E. (converted)): > 2000 nM | Ki ([4]; Ki, 2.5 μM efmSHMT, 10 mM Gly and 100 μM Ser, Cheng-Prusoff): 8.8 nM | Ki ([4]; Ki, 5 μM efmSHMT, 10 mM Gly and 100 μM Ser, Cheng-Prusoff): 28 nM | Ki ([4]; actual Ki (bound, as the assay's efmSHMT detection limit is 2.5 μM), efmSHMT): < 8.8 nM | Ki ([4]; pKi ± pSE, 2.5 μM efmSHMT, 10 mM Gly and 100 μM Ser): 7.94 nM | Ki ([4]; pKi ± pSE, 5 μM efmSHMT, 10 mM Gly and 100 μM Ser): 25.1 nM | EC50 ([5]; Enterococcus faecalis, read-out: EC50): > 2000 nM | EC50 ([5]; Enterococcus faecalis, read-out: pEC50 ± S.E. (converted)): > 2000 nM | EC50 ([6]; Escherichia coli, read-out: EC50): > 2000 nM | EC50 ([6]; Escherichia coli, read-out: pEC50 ± S.E. (converted)): > 2000 nM | EC50 ([7]; Staphylococcus aureus, read-out: EC50): > 2000 nM | EC50 ([7]; Staphylococcus aureus, read-out: pEC50 ± S.E. (converted)): > 2000 nM | binding to ecSHMT (DSF) [8]: bound to ecSHMT | ΔTm (thermal stability of efmSHMT) [9]: 7 °C

Cc1[nH]nc2c1C(c1cc(CO)cc(-c3ccccc3)c1)(C(C)C)C(C#N)=C(N)O2 (centres unmarked) [SHIN-1]
pEC50 ± S.E. ([2]; E. faecium JCM5804): 9.3 ± 0.1 | EC50 ([2]; E. faecium JCM5804, read-out: EC50): 0.5 nM | 50% effective concentration (EC50) ([2]; order of magnitude given): 10^–10 to 10^–11 M | pharmacokinetic properties [10]: lacked pharmacokinetic properties suitable | half-life ([10]; response letter, ref (6) García-Cañaveras et al. 2021): too short to use in vivo | pEC50 ± S.E. ([3]; E. faecium JCM5804, 1 mM Inosine): 8.3 ± 0.3 | EC50 ([3]; E. faecium JCM5804, 1 mM Inosine, read-out: EC50): 5.2 nM | pEC50 ± S.E. ([3]; E. faecium JCM5804, 1 mM deoxythymidine): < 5.7 | EC50 ([3]; E. faecium JCM5804, 1 mM deoxythymidine, read-out: EC50): > 2000 nM | pEC50 ± S.E. ([3]; E. faecium JCM5804, 10 mM Glycine): 8.9 ± 0.0 | EC50 ([3]; E. faecium JCM5804, 10 mM Glycine, read-out: EC50): 1.2 nM | pEC50 ± S.E. ([3]; E. faecium JCM5804, 100 mM Serine): 8.5 ± 0.1 | EC50 ([3]; E. faecium JCM5804, 100 mM Serine, read-out: EC50): 3.4 nM | pEC50 ± S.E. ([3]; E. faecium JCM5804, 0.1 M folate): < 5.7 | EC50 ([3]; E. faecium JCM5804, 0.1 M folate, read-out: EC50): > 2000 nM | pEC50 ± S.E. [5]: < 5.7 | EC50 ([5]; read-out: EC50): > 2000 nM | pEC50 ± S.E. [6]: < 5.7 | EC50 ([6]; read-out: EC50): > 2000 nM | pEC50 ± S.E. [7]: < 5.7 | EC50 ([7]; read-out: EC50): > 2000 nM

B1: Enterococcus faecium serine hydroxymethyltransferase (enzyme)
chain: VDYKTFDPDLWAAIAKEEERQEHNLELIASENFVSEAVMAAQGSILTNKYAEGYPGHRYYGGCEFVDIVENLAIDRAKELFGAKFANVQPHSGSQANTAAYLALVEPGDTILGMDLSAGGHLTHGSPVNFSGKTYHFVAYGVDPTTEVIDYNVVRILARKHQPKLIVAGASAYGRTIDFAKFREIADEVGAKLMVDMAHIAGLVAAGLHPNPVPYADITTTTTHKTLRGPRGGMILTNDEALAKKINSAVFPGIQGGPLEHVIAGKAVAFKEALDPAFKEYSEQIIANAKAMVKVFNQAIGTRVISGATDNHLMLIDVRELGINGKEAESILDSVNITVNKNSIPFETLSPFKTSGIRIGTPAITTRGFKEEDAVKVAELVVKALQAKDDNAQLDEVKTGVRELTEKFPLHKK
modifications: pyridoxal 5'-phosphate (PLP) covalently linked as a Schiff's base to K226 (in the efmSHMT/(+)-SHIN-1 structure; relocated to Ser or Gly in the ternary complexes)
notes: theoretical monomer molecular weight 44.7 kDa; A few vector residues may remain at the N-terminus after PreScission cleavage; also called efmSHMT; E. faecium SHMT; source: E. coli BL21(DE3), purified (HisTrap, PreScission digestion, HiTrap Q, Superdex 75); not shown: His tag, N-terminal, cleaved
stoichiometry N [11]: 2
